This is an account of results in ChEMBL document CHEMBL1201862, “PubChem BioAssay data set” (2004).

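How tested: cells in 96-well plates exposed to compound for 48 hours at five concentrations. The concentration for 50% growth inhibition is given as GI50.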 The source made the active and inactive calls. Cut-off read from the data, not from the text of the source: active = GI50 up to about 1.1 µM and inactive = higher.

Among the test systems are NCI-H460; NCI-H23; UO-31; HCT-15; KM12; SK-MEL-5; HL-60; MOLT-4; CCRF-CEM; U-251; LOX IMVI; RXF 393; SN12C; OVCAR-3; HT-29; K562; UACC-257; SK-OV-3; OVCAR-4; SNB-19.
Common to all, as to assay: inhibition of tumour cell growth, NCI panel, 48 h

Take `COc1cc2c(cc1OC)C(C1(O)CCCCC1)NCC2` (stereo unspecified): the GI50 is > 100 µM (inactive) in the assay with NCI-H460; > 100 µM (inactive) in the assay with NCI-H23; > 100 µM (inactive) in the assay on UO-31; more than 100 µM in the assay on HCT-15; > 100 µM (inactive) in the assay with KM12; > 100 µM (inactive) in the assay with SK-MEL-5. Also, the GI50 in the assay with HL-60, in the assay with MOLT-4, in the assay with CCRF-CEM, in the assay on U-251, with LOX IMVI and in the assay on RXF 393 was > 100 µM (inactive) each time. The GI50 in the assay with SN12C, in the assay with OVCAR-3, in the assay on HT-29, in the assay with K562, with UACC-257 and in the assay with SK-OV-3 was > 100 µM (inactive) throughout.
Consider `CC(C)(C)OC(=O)NCC(=O)NC1c2ccsc2/C(=N/O)[C@H]1O` (stereo partly specified), for which the GI50 in the assay on NCI-H460 is > 100 µM (inactive); with NCI-H23, > 100 µM (inactive); in the assay on UO-31, > 100 µM (inactive); with HCT-15, more than 100 µM; in the assay with SK-MEL-5 it was > 100 µM (inactive); in the assay with HL-60, > 100 µM (inactive). The GI50 with MOLT-4, in the assay on CCRF-CEM, in the assay with U-251, with LOX IMVI, in the assay on RXF 393 and with SN12C was > 100 µM (inactive) throughout. Also, the GI50 in the assay with OVCAR-3 was > 100 µM (inactive); in the assay on HT-29, > 100 µM (inactive); in the assay on OVCAR-4 it was > 100 µM (inactive); in the assay with SNB-19 it was > 100 µM (inactive); in the assay on K562 it was 5.28 µM (inactive); with UACC-257, > 100 µM (inactive). Moreover, in the assay on SK-OV-3, the GI50 is > 100 µM (inactive).
Turning to `COCCOCOc1ccc(OCc2ccccc2)cc1`, the GI50 was > 100 µM (inactive) in the assay on NCI-H460; > 71 µM (inactive) in the assay on NCI-H23; > 100 µM (inactive) in the assay on UO-31; more than 100 µM with HCT-15; > 100 µM (inactive) in the assay on KM12; 35 µM (inactive) in the assay with SK-MEL-5. Also, the GI50 is 22.5 µM (inactive) with HL-60; 34 µM (inactive) with MOLT-4; 36.6 µM (inactive) in the assay on CCRF-CEM; > 85.9 µM (inactive) in the assay on U-251; > 100 µM (inactive) in the assay on LOX IMVI; > 100 µM (inactive) with RXF 393. Further, the GI50 was > 100 µM (inactive) in the assay on SN12C; > 100 µM (inactive) in the assay with OVCAR-3; > 100 µM (inactive) in the assay on HT-29; 35.7 µM (inactive) in the assay with OVCAR-4; > 100 µM (inactive) in the assay with SNB-19; 64.9 µM (inactive) with K562. Further, the GI50 in the assay on UACC-257 was > 69.7 µM (inactive); in the assay with SK-OV-3 it was > 100 µM (inactive).
`O=C1c2ccccc2OCC12OC21C=CC(Cl)=CC1` (stereo unspecified): the GI50 in the assay with NCI-H460 was 20.3 µM (inactive); with NCI-H23 it was 16 µM (inactive); in the assay with UO-31 it was 29.6 µM (inactive); in the assay with HCT-15, 28.6 µM; in the assay with KM12 it was 17.6 µM (inactive); in the assay on SK-MEL-5, 13.2 µM (inactive). The GI50 in the assay on HL-60 was 15.7 µM (inactive); with MOLT-4 it was 0.113 µM (active); with U-251 it was 17.3 µM (inactive); in the assay on LOX IMVI, 13.5 µM (inactive); in the assay on RXF 393, 24.9 µM (inactive); with SN12C it was 15.7 µM (inactive). The GI50 with OVCAR-3 is 20.5 µM (inactive); in the assay on HT-29, 19.1 µM (inactive); in the assay on OVCAR-4, 12.4 µM (inactive); with SNB-19, 29.8 µM (inactive); in the assay with K562 it was 16.6 µM (inactive); in the assay with UACC-257, 32.2 µM (inactive). For the same compound, in the assay with SK-OV-3, the GI50 was 51.8 µM (inactive).
`COc1cc2c(cc1Oc1ccc(OC)c3c1CC1c4c(cc(OC)c(OC)c4-3)CCN1C)CC1c3c(cc(OC)c(OC)c3-2)CCN1C` (stereo unspecified): the GI50 is 1.7 µM (inactive) in the assay on NCI-H460; 10.7 µM (inactive) in the assay with NCI-H23; 3.88 µM (inactive) in the assay with UO-31; 2.02 µM with HCT-15; 2.35 µM (inactive) in the assay on KM12; 1.64 µM (inactive) with SK-MEL-5. Also, the GI50 in the assay on HL-60 was 0.968 µM (active); in the assay with MOLT-4, 1.25 µM (inactive); in the assay on CCRF-CEM, 2.45 µM (inactive); in the assay with U-251, 1.79 µM (inactive); in the assay on LOX IMVI, 0.234 µM (active); in the assay on RXF 393, 1.52 µM (inactive). The GI50 was 6.59 µM (inactive) with SN12C; 4.95 µM (inactive) with OVCAR-3; 0.35 µM (active) in the assay with HT-29; 2.74 µM (inactive) in the assay with OVCAR-4; 5.69 µM (inactive) in the assay with SNB-19; 1.39 µM (inactive) in the assay on K562. In addition, the GI50 in the assay on UACC-257 was 1.65 µM (inactive); with SK-OV-3, 17.8 µM (inactive).
Consider `CC(=C/c1ccccc1)/C=C1/NC(=S)N(/C=C2\C(=O)Oc3ccccc3C2=O)C1=O`, for which the GI50 was 30.5 µM (inactive) with NCI-H460; 41.6 µM (inactive) in the assay with NCI-H23; 45.7 µM in the assay with HCT-15; 27.5 µM (inactive) in the assay on KM12; 25.6 µM (inactive) with SK-MEL-5; 25.8 µM (inactive) with HL-60. In addition, the GI50 is 38.1 µM (inactive) in the assay on MOLT-4; 33.8 µM (inactive) with CCRF-CEM; 41.3 µM (inactive) in the assay on U-251; 53.5 µM (inactive) with LOX IMVI; 0.0664 µM (active) with RXF 393; 98.6 µM (inactive) with SN12C. Moreover, the GI50 was 38.3 µM (inactive) in the assay on OVCAR-3; 34.9 µM (inactive) in the assay on OVCAR-4; 65.6 µM (inactive) with SNB-19; 39.6 µM (inactive) with K562; 66.7 µM (inactive) in the assay with UACC-257.
For the compound `CC(=O)ON1C(=O)c2cccc3cccc(c23)C1=O`, the GI50 in the assay on NCI-H460 is 7.93 µM (inactive); with NCI-H23, 10.4 µM (inactive); with UO-31, 6.27 µM (inactive); in the assay with HCT-15 it was 18 µM; with KM12, 14.6 µM (inactive); in the assay on SK-MEL-5 it was 13.2 µM (inactive). For the same compound, the GI50 with HL-60 was 10.9 µM (inactive); in the assay on MOLT-4 it was 15.6 µM (inactive); in the assay with CCRF-CEM, 9.66 µM (inactive); with U-251, 14.8 µM (inactive); in the assay with LOX IMVI, 14.2 µM (inactive); in the assay on RXF 393, 7.23 µM (inactive). Moreover, the GI50 in the assay on OVCAR-3 was 19.5 µM (inactive); in the assay with HT-29, 27.2 µM (inactive); in the assay on OVCAR-4, 11.7 µM (inactive); in the assay with SNB-19, 36.8 µM (inactive); with K562, 20.1 µM (inactive); with UACC-257 it was 23.8 µM (inactive). In the assay with SK-OV-3, the GI50 is 34.4 µM (inactive).
Regarding `Cc1cc(NS(=O)(=O)c2ccc(NC(=O)c3cccc4c(Nc5ccc(S(N)(=O)=O)cc5)c5ccccc5nc34)cc2)no1`, the GI50 was > 100 µM (inactive) in the assay with NCI-H460; > 100 µM (inactive) in the assay with NCI-H23; 35.6 µM (inactive) in the assay on UO-31; more than 100 µM with HCT-15; 57 µM (inactive) in the assay on KM12; > 100 µM (inactive) in the assay on HL-60. In addition, the GI50 is > 100 µM (inactive) in the assay on MOLT-4; 85.9 µM (inactive) in the assay with CCRF-CEM; 87.7 µM (inactive) in the assay with U-251; 70.3 µM (inactive) in the assay with LOX IMVI; > 100 µM (inactive) in the assay with RXF 393; > 100 µM (inactive) with SN12C. For the same compound, the GI50 in the assay with OVCAR-3 is 76.2 µM (inactive); in the assay with HT-29 it was > 100 µM (inactive); with OVCAR-4, > 100 µM (inactive); in the assay on SNB-19, 97.3 µM (inactive); in the assay with K562 it was 98.2 µM (inactive); in the assay on UACC-257, > 100 µM (inactive). Also, in the assay with SK-OV-3, the GI50 was > 100 µM (inactive).
As to `Cc1ccccc1-c1nc2c(C(=O)NCCN(C)C)cccc2[nH]1`, the GI50 is 30.2 µM (inactive) with NCI-H460; 57.7 µM (inactive) with NCI-H23; 20 µM (inactive) with UO-31; 43.8 µM in the assay on HCT-15; 52.8 µM (inactive) in the assay on KM12; 21.7 µM (inactive) in the assay on SK-MEL-5. The GI50 in the assay on HL-60 is 26.5 µM (inactive); with MOLT-4 it was 27 µM (inactive); in the assay with CCRF-CEM it was 27 µM (inactive); in the assay with U-251, 34.5 µM (inactive); in the assay with LOX IMVI, 38.3 µM (inactive); with RXF 393, 78.9 µM (inactive). Besides, the GI50 in the assay on SN12C was 40.4 µM (inactive); in the assay with OVCAR-3 it was 65.6 µM (inactive); in the assay with HT-29 it was 31.8 µM (inactive); in the assay with OVCAR-4 it was 49.1 µM (inactive); in the assay with SNB-19, 48.6 µM (inactive); in the assay with K562 it was 20.9 µM (inactive). Also, the figures for the GI50 with UACC-257 and in the assay on SK-OV-3 were 39.8 µM (inactive) and 46.5 µM (inactive), respectively.
Regarding `O=C1OC(c2ccc(O)c(F)c2)(c2ccc(O)c(F)c2)c2cccc3cccc1c23`, the GI50 is > 25 µM (inactive) in the assay with NCI-H460; > 25 µM (inactive) in the assay with NCI-H23; > 25 µM (inactive) in the assay on UO-31; more than 25 µM with HCT-15; > 25 µM (inactive) in the assay on KM12; > 25 µM (inactive) in the assay with SK-MEL-5. The GI50 with HL-60 is 5.57 µM (inactive); in the assay with MOLT-4 it was 5.35 µM (inactive); in the assay on CCRF-CEM it was > 25 µM (inactive); in the assay with U-251 it was > 25 µM (inactive); with LOX IMVI, > 25 µM (inactive); in the assay with RXF 393, > 25 µM (inactive). Also, the GI50 in the assay with SN12C is 1.34 µM (inactive); with OVCAR-3, 5.9 µM (inactive); in the assay with HT-29, > 25 µM (inactive); with OVCAR-4 it was 0.0601 µM (active); with SNB-19, > 25 µM (inactive); with K562 it was 14.8 µM (inactive). In addition, the GI50 in the assay with UACC-257 and in the assay on SK-OV-3 was > 25 µM (inactive) throughout.
